In US10799478B2, “Treatment of androgen deprivation therapy associated symptoms” (priority 2014, dated 2020):

What was measured:
Orx rats = test: Orchidectomized Rat Assay; format: in vivo; settings: for SV Weight, % Sham: once daily 2 months
[1] = test system: LnCAP human prostate cancer cells; test: LnCAP Gene Expression; format: cell-based
healthy volunteers = test: Treatment of healthy volunteers (12 weeks); format: in vivo, human; settings: after 12 weeks in healthy volunteers

CC(C)OC(=O)N[C@H]1Cc2c(n(Cc3ccccn3)c3ccc(C#N)cc23)C1 (single isomer, unassigned) [Example 1]
LV-TA (cm2) ± SD (Orx rats; 1 mg/Kg/d): 0.3378 ± 7.08E−03 cm2
LV-TBMC (mg) ± SD (Orx rats; 1 mg/Kg/d): 1.54 ± 0.0256 mg
LV-TBMD (mg/cm3) ± SD (Orx rats; 1 mg/Kg/d): 507.4 ± 6.931 mg/cm3
SV Weight, % Sham (Orx rats; 1 mg/Kg/d po): 5.6 % Sham
LV-TA (cm2) ± SD (Orx rats; 3 mg/Kg/d): 0.362 ± 0.0138 ^ cm2
LV-TBMC (mg) ± SD (Orx rats; 3 mg/Kg/d): 1.79 ± 0.095 mg
LV-TBMD (mg/cm3) ± SD (Orx rats; 3 mg/Kg/d): 549 ± 15.965 mg/cm3
SV Weight, % Sham (Orx rats; 3 mg/Kg/d po): 5.5 % Sham
LV-TA (cm2) ± SD (Orx rats; 10 mg/Kg/d): 0.3521 ± 0.0125 ^ cm2
LV-TBMC (mg) ± SD (Orx rats; 10 mg/Kg/d): 1.7757 ± 0.0607 mg
LV-TBMD (mg/cm3) ± SD (Orx rats; 10 mg/Kg/d): 562.843 ± 16.104 mg/cm3
SV Weight, % Sham (Orx rats; 10 mg/Kg/d po): 6.0 % Sham
LV-TA (cm2) ± SD (Orx rats; 20 mg/Kg/d): 0.3563 ± 0.0102 ^ cm2
LV-TBMD (mg/cm3) ± SD (Orx rats; 20 mg/Kg/d): 529.357 ± 10.052 mg/cm3
SV Weight, % Sham (Orx rats; 20 mg/Kg/d po): 6.1 % Sham
EC50 ([1]; Homo sapiens, LNCaP, AR gene, read-out: LnCAP Gene Expression EC50 (nM) AR): 1.64 nM
androgenicity in vitro in human prostate cancer cells ([1]; comparison with R1881): less androgenic than R1881
hematocrit (healthy volunteers): no significant changes
prostate specific antigen (PSA) (healthy volunteers): no significant changes
